In US20070128217A1 (priority 2003, published 2007):

Columns and labels:
[1] = tested on: antibodies in sera from SARS patients (sera 1a, 1b, 2, 6, 37, 62, London, SARS-yellow, SARS-green); assay type: binding, human; parameters: Binding of serum 6 to linear peptides of protein X1 of SARS-CoV Urbani / Binding of serum 37 to linear peptides of protein X1 of SARS-CoV Urbani / Binding of serum 6 to looped/cyclic peptide (PEPSCAN-ELISA) / Binding of serum 37 to looped/cyclic peptide (PEPSCAN-ELISA) / Binding of serum 37 to looped/cyclic peptides of protein X1 of SARS-CoV Urbani / Binding of serum 6 to linear peptides of protein X2 / Binding of serum 37 to linear peptides of protein X2 / Binding of serum 37 to looped/cyclic peptides of protein X2 of SARS-CoV Urbani / Binding of serum 6 to linear peptides of protein M of SARS-CoV Urbani / Binding of serum 37 to linear peptides of protein M of SARS-CoV Urbani / Binding of serum 6 to looped/cyclic peptides of protein M of SARS-CoV Urbani / Binding of serum 37 to looped/cyclic peptides of protein M of SARS-CoV Urbani / Binding of serum 6 to linear peptides of protein X3 of SARS-CoV Urbani / Binding of serum 37 to linear peptides of protein X3 of SARS-CoV Urbani / Binding of serum 37 to looped/cyclic peptides of protein X3 of SARS-CoV Urbani / Binding of serum 6 to linear peptides of protein X4 of SARS-CoV Urbani / Binding of serum 37 to linear peptides of protein X4 of SARS-CoV Urbani / Binding of serum 37 to looped/cyclic peptides of protein X4 of SARS-CoV Urbani / Binding of serum 6 to linear peptides of protein X5 of SARS-CoV Urbani / Binding of serum 37 to linear peptides of protein X5 of SARS-CoV Urbani / Binding of serum 37 to looped/cyclic peptides of protein X5 of SARS-CoV Urbani / Binding of serum 6 to linear peptides of protein N of SARS-CoV Urbani / Binding of serum 37 to linear peptides of protein N of SARS-CoV Urbani / Binding of serum 6 to linear peptide (PEPSCAN-ELISA) / Binding of serum 1a to looped/cyclic peptides of protein N of SARS-CoV Urbani / Binding of serum 1b to looped/cyclic peptides of protein N of SARS-CoV Urbani / Binding of serum 2 to looped/cyclic peptides of protein N of SARS-CoV Urbani / Binding of serum 6 to looped/cyclic peptides of protein N of SARS-CoV Urbani / Binding of serum 37 to looped/cyclic peptides of protein N of SARS-CoV Urbani / Binding of serum 62 to looped/cyclic peptides of protein N of SARS-CoV Urbani / Binding of serum London to looped/cyclic peptides of protein N of SARS-CoV Urbani / Binding of serum SARS-green to looped/cyclic peptides of protein N of SARS-CoV Urbani: unit not given here
[2] = tested on: recombinant human anti-SARS-CoV antibody 03-018; assay type: binding; parameters: Binding of antibody 03-018 to linear peptides of the N protein of SARS-CoV Urbani / Binding of antibody 03-018 to looped/cyclic peptides of the N protein of SARS-CoV Urbani: unit not given here
[3] = tested on: control sera (pooled serum of ten healthy LUMC hospital workers; commercial negative donor pooled serum from the Dutch bloodbank); assay type: binding, human; parameters: Binding of Control serum LUMC to linear peptides / Binding of Control serum Blood-bank to linear peptides / Binding of Control serum LUMC to looped peptides / Binding of Control Serum Blood-Bank to Looped peptides / Binding of Control serum LUMC to linear peptides of the protein M of SARS-CoV Urbani / Binding of Control serum Blood-bank to linear peptides of the protein M of SARS-CoV Urbani / Binding of Control serum LUMC to looped peptides of the protein M of SARS-CoV Urbani / Binding of Control Serum Blood-Bank to Looped peptides of the protein M of SARS-CoV Urbani: unit not given here
[4] = tested on: rabbit serum obtained by immunizing a rabbit with the SARS-CoV strain Frankfurt 1; assay type: binding; parameters: Binding of a rabbit serum to linear peptides / Binding of a rabbit serum to looped peptides / Rabbit serum linear peptides / Rabbit serum looped peptides / Binding of a rabbit serum to linear peptides of protein N of SARS-CoV Urbani (Rabbit serum linear peptides) / Binding of a rabbit serum to looped/cyclic peptides of protein N of SARS-CoV Urbani (Rabbit serum looped peptides): unit not given here

Sequence	Binding of serum 1a to linear peptides of protein N of SARS-CoV Urbani [1]	Binding of serum 1a to looped/cyclic peptides of protein N of SARS-CoV Urbani [1]	Binding of serum 1b to linear peptides of protein N of SARS-CoV Urbani [1]	Binding of serum 1b to looped/cyclic peptides of protein N of SARS-CoV Urbani [1]	Binding of serum 2 to linear peptides of protein N of SARS-CoV Urbani [1]	Binding of serum 2 to looped/cyclic peptides of protein N of SARS-CoV Urbani [1]	Binding of serum 6 to linear peptides of protein N of SARS-CoV Urbani [1]	Binding of serum 6 to looped/cyclic peptides of protein N of SARS-CoV Urbani [1]	Binding of serum 37 to linear peptides of protein N of SARS-CoV Urbani [1]	Binding of serum 37 to looped/cyclic peptides of protein N of SARS-CoV Urbani [1]	Binding of serum 62 to linear peptides of protein N of SARS-CoV Urbani [1]	Binding of serum 62 to looped/cyclic peptides of protein N of SARS-CoV Urbani [1]	Binding of serum London to linear peptides of protein N of SARS-CoV Urbani [1]	Binding of serum London to looped/cyclic peptides of protein N of SARS-CoV Urbani [1]	Binding of serum SARS-green to linear peptides of protein N of SARS-CoV Urbani [1]	Binding of serum SARS-green to looped/cyclic peptides of protein N of SARS-CoV Urbani [1]	Binding of serum SARS-yellow to linear peptides of protein N of SARS-CoV Urbani [1]	Binding of serum SARS-yellow to looped/cyclic peptides of protein N of SARS-CoV Urbani [1]	Binding of antibody 03-018 to linear peptides of the N protein of SARS-CoV Urbani [2]	Binding of antibody 03-018 to looped/cyclic peptides of the N protein of SARS-CoV Urbani [2]	also measured
ASWFTALTQHGKEEL	0.2	0.2	0.1	0.1	0.1	0.2	0.1	0.1	0.9	0.4	0.6	0.3	0.5	0.3	0.4	0.2	0.4	0.1	0.1	0.2	Binding of Control Serum Blood-Bank to Looped peptides [3]: 0.5; Binding of Control serum Blood-bank to linear peptides [3]: 0.7; Binding of Control serum LUMC to linear peptides [3]: 0.5; Binding of Control serum LUMC to looped peptides [3]: 0.4; Binding of a rabbit serum to linear peptides of protein N of SARS-CoV Urbani (Rabbit serum linear peptides) [4]: 0.1; Binding of a rabbit serum to looped/cyclic peptides of protein N of SARS-CoV Urbani (Rabbit serum looped peptides) [4]: 0.1
ATEGALNTPKDHIGT	0.2	0.3	0.1	0.2	0.3	0.4	0.1	0.2	0.7	0.4	0.7	0.3	0.5	0.3	0.4	0.3	0.6	0.2	0.1	0.2	Binding of Control Serum Blood-Bank to Looped peptides [3]: 0.5; Binding of Control serum Blood-bank to linear peptides [3]: 0.8; Binding of Control serum LUMC to linear peptides [3]: 0.7; Binding of Control serum LUMC to looped peptides [3]: 0.5; Binding of a rabbit serum to linear peptides of protein N of SARS-CoV Urbani (Rabbit serum linear peptides) [4]: 0.1; Binding of a rabbit serum to looped/cyclic peptides of protein N of SARS-CoV Urbani (Rabbit serum looped peptides) [4]: 0.1
ATRRVRGGDGKMKEL	0.3	0.2	0.1	0.1	0.3	0.2	0.3	0.1	0.8	0.4	0.7	0.3	0.5	0.3	0.3	0.1	0.6	0.4	0.1	0.2	Binding of Control Serum Blood-Bank to Looped peptides [3]: 0.5; Binding of Control serum Blood-bank to linear peptides [3]: 0.7; Binding of Control serum LUMC to linear peptides [3]: 0.7; Binding of Control serum LUMC to looped peptides [3]: 0.5; Binding of a rabbit serum to linear peptides of protein N of SARS-CoV Urbani (Rabbit serum linear peptides) [4]: 0.3; Binding of a rabbit serum to looped/cyclic peptides of protein N of SARS-CoV Urbani (Rabbit serum looped peptides) [4]: 0.3
DDFSRQLQNSMSGAS	0.2	0.3	0.1	0.1	0.2	0.3	0.2	0.1	0.8	0.4	0.7	0.3	0.7	0.2	0.4	0.2	0.6	0.1	0.2	0.2	Control Serum Blood-Bank Looped peptides [3]: 0.3; Control serum Blood-bank linear peptides [3]: 0.8; Control serum LUMC linear peptides [3]: 0.6; Control serum LUMC looped peptides [3]: 0.3; Binding of a rabbit serum to linear peptides of protein N of SARS-CoV Urbani (Rabbit serum linear peptides) [4]: 0.5; Binding of a rabbit serum to looped/cyclic peptides of protein N of SARS-CoV Urbani (Rabbit serum looped peptides) [4]: 0.3
